As a reminder, the EC50 is the concentration that produces a half-maximal response.

Peptide text beside a SMILES is read from it.

This assay deals with T1, ASIC1a F302A (Homo sapiens, UniProt P78348, F302A).
T1 construct: expressed in transfected cells; host or cells: Xenopus laevis oocytes injected with cRNA
T1 sequence (P78348 1-528 F302A): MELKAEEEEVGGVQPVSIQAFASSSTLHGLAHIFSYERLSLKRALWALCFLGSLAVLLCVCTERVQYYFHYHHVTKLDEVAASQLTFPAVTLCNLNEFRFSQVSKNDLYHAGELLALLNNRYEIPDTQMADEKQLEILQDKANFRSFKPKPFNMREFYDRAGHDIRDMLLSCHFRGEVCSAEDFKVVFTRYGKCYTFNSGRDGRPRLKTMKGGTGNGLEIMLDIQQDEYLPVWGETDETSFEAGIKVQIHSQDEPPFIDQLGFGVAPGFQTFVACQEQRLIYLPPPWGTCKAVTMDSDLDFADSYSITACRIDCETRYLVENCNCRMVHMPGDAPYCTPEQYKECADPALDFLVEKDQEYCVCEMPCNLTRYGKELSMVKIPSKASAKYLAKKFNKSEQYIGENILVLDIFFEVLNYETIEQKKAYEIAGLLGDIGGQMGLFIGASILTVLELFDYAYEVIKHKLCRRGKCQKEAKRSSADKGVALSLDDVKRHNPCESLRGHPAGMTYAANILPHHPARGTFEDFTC
Nature of the assay: Isust/Ipeak, TEVC in Xenopus oocytes. Conditions: pH5, n = 8–10, mean ± SEM, read-out: EC50 of FRRFa-mediated sustained current induction. It counts as cell-based. The source says: To scan the pocket and predicted entrance area with mutagenesis, we chose the residues with a potential to form hydrophobic (Ile312, Val187), aromatic (Phe 257, Phe301, Phe302) or electrostatic (Glu254, Asp303, Ser199, Asp253, Glu315) interactions with the peptide. For this analysis, we used mutation to Ala, and complemented the scan with mutation to Cys and subsequent chemical modification only for a selected residue. […] Phe302 is part of a loop connecting palm and thumb domains in the close neighbourhood of the thumb base. The observed increased Isust/Ipeak ratio of F302A (Fig. 4b,e) could simply be due to a better accessibility of the cavity of the putative RFa binding site in the thumb base, because Phe302 has a larger side chain than has Ala to which it was mutated. To test this hypothesis, we mutated Phe302 to Cys and exposed the mutant to the sulfhydryl reagent trimethylammonium-methyl methanethiosulfonate ([…]; 1 mM during 3 min) before the exposure to FRRFa. […]
Electrophysiological measurements were performed 1–2 days after cRNA injection. Ion currents were recorded using two-electrode voltage-clamp at a holding potential of −60 mV with a Dagan TEV-200 amplifier (Minneapolis, MN). […] The amplitude of the sustained current was measured in the last two seconds of the pH5 perfusion. […]

As to `N=C(N)NCCC[C@H](NC(=O)[C@H](CCCNC(=N)N)NC(=O)[C@@H](N)Cc1ccccc1)C(=O)N[C@@H](Cc1ccccc1)C(N)=O` [FRRFa, Phe-Arg-Arg-Phe-amide] (H-FRRF-NH2), the EC50 stood at 11 ± 2 µM.

The values above are taken from article PMC6385203, “Mutations in the palm domain disrupt modulation of acid-sensing ion channel 1a currents by neuropeptides” (Scientific Reports, 2019).
